{"source": "patent US4933456A", "about": "“Dipyridoxyl phosphate NMRI contrast agents” (Salutar, Inc., priority 1987, dated 1990)", "tested_on": "selected body organs", "details": "for T1: 0.01 mmol/kg i.v.", "procedure": "Each of seven rabbits was injected intravenously with 0.01 mmol/kg of the solution obtained in Example 7. The rabbits were sacrificed at 0.25, 0.50, 1.0, 2.0, 4, 6 and 24 hours post-injection, and the proton relation values of selected body organs were measured with NMR, in vitro, at 10 MHz.", "note": "Read-outs that look alike come from different tables or passages of the source.", "data": [{"smiles": "Cc1ncc(COP(=O)(O)O)c(CN(CCN(CC(=O)[O-])Cc2c(COP(=O)(O)O)cnc(C)c2O)CC(=O)[O-])c1O.[Mn+2]", "note": "[Mn(DPDP), sodium-calcium salt of a manganese chelate complex of N,N,-bis-(pyridoxal-5-phosphate)ethylenediamine-N,N'-diacetic acid or N,N'-bis(3-hydroxy-2-methyl-5-phosphonomethyl-4-pyridylmethyl)ethylenediamine-N,N'-diacetic acid]", "values": [{"measurement": "T1", "setting": "Bile, 0.25 hr", "result": 160, "unit": "ms"}, {"measurement": "T1", "setting": "Bile, 0.50 hr", "result": 46, "unit": "ms"}, {"measurement": "T1", "setting": "Bile, 1.0 hr", "result": 25, "unit": "ms"}, {"measurement": "T1", "setting": "Bile, 2 hr", "result": 21, "unit": "ms"}, {"measurement": "T1", "setting": "Bile, 4 hr", "result": "< 1", "unit": "ms"}, {"measurement": "T1", "setting": "Bile, 6 hr", "result": 14, "unit": "ms"}, {"measurement": "T1", "setting": "Bile, 24 hr", "result": 107, "unit": "ms"}, {"measurement": "T1", "setting": "Heart, 0.25 hr", "result": 231, "unit": "ms"}, {"measurement": "T1", "setting": "Heart, 0.50 hr", "result": 352, "unit": "ms"}, {"measurement": "T1", "setting": "Heart, 1.0 hr", "result": 381, "unit": "ms"}, {"measurement": "T1", "setting": "Heart, 2 hr", "result": 507, "unit": "ms"}, {"measurement": "T1", "setting": "Heart, 4 hr", "result": 522, "unit": "ms"}, {"measurement": "T1", "setting": "Heart, 6 hr", "result": 663, "unit": "ms"}, {"measurement": "T1", "setting": "Heart, 24 hr", "result": 660, "unit": "ms"}, {"measurement": "T1", "setting": "Liver, 0.25 hr", "result": 68, "unit": "ms"}, {"measurement": "T1", "setting": "Liver, 0.50 hr", "result": 76, "unit": "ms"}, {"measurement": "T1", "setting": "Liver, 1.0 hr", "result": 48, "unit": "ms"}, {"measurement": "T1", "setting": "Liver, 2 hr", "result": 48, "unit": "ms"}, {"measurement": "T1", "setting": "Liver, 4 hr", "result": 145, "unit": "ms"}, {"measurement": "T1", "setting": "Liver, 6 hr", "result": 209, "unit": "ms"}, {"measurement": "T1", "setting": "Liver, 24 hr", "result": 315, "unit": "ms"}, {"measurement": "T1", "setting": "Renal cortex, 0.25 hr", "result": 202, "unit": "ms"}, {"measurement": "T1", "setting": "Renal cortex, 0.50 hr", "result": 191, "unit": "ms"}, {"measurement": "T1", "setting": "Renal cortex, 1.0 hr", "result": 229, "unit": "ms"}, {"measurement": "T1", "setting": "Renal cortex, 2 hr", "result": 192, "unit": "ms"}, {"measurement": "T1", "setting": "Renal cortex, 4 hr", "result": 210, "unit": "ms"}, {"measurement": "T1", "setting": "Renal cortex, 6 hr", "result": 239, "unit": "ms"}, {"measurement": "T1", "setting": "Renal cortex, 24 hr", "result": 328, "unit": "ms"}, {"measurement": "T1", "setting": "Renal medulla, 0.25 hr", "result": 192, "unit": "ms"}, {"measurement": "T1", "setting": "Renal medulla, 0.50 hr", "result": 231, "unit": "ms"}, {"measurement": "T1", "setting": "Renal medulla, 1.0 hr", "result": 236, "unit": "ms"}, {"measurement": "T1", "setting": "Renal medulla, 2 hr", "result": 310, "unit": "ms"}, {"measurement": "T1", "setting": "Renal medulla, 4 hr", "result": 340, "unit": "ms"}, {"measurement": "T1", "setting": "Renal medulla, 6 hr", "result": 375, "unit": "ms"}, {"measurement": "T1", "setting": "Renal medulla, 24 hr", "result": 563, "unit": "ms"}, {"measurement": "clearance through both the renal and hepatobiliary systems, time post-injection", "setting": "rabbit, i.v.", "result": "6 to 8", "unit": "h"}, {"measurement": "uptake and clearance in the liver, renal cortex, renal medulla and heart", "setting": "rabbit, i.v.", "result": "rapid uptake and clearance"}]}]}
